Test results reported in patent US20220356186A1, “PERK INHIBITING PYRROLOPYRIMIDINE COMPOUNDS” (HiberCell, Inc., priority 2019, published 2022).
Like-named read-outs stand apart in the source and are kept apart here.

Tests used:
[1] = target: T1, EIF2AK3 (PERK) catalytic domain (amino acids 536-1116) (Homo sapiens, UniProt Q9NZJ5); experiment: PERK in vitro activity assay (isolated), TR-FRET kinase assay; assay type: biochemical; settings: isolated PERK enzyme, 1.5 μM ATP; read-out: Biochemical IC50
T1 construct: EIF2AK3 (PERK) catalytic domain (amino acids 536-1116)
T1 sequence (Q9NZJ5 536-1116): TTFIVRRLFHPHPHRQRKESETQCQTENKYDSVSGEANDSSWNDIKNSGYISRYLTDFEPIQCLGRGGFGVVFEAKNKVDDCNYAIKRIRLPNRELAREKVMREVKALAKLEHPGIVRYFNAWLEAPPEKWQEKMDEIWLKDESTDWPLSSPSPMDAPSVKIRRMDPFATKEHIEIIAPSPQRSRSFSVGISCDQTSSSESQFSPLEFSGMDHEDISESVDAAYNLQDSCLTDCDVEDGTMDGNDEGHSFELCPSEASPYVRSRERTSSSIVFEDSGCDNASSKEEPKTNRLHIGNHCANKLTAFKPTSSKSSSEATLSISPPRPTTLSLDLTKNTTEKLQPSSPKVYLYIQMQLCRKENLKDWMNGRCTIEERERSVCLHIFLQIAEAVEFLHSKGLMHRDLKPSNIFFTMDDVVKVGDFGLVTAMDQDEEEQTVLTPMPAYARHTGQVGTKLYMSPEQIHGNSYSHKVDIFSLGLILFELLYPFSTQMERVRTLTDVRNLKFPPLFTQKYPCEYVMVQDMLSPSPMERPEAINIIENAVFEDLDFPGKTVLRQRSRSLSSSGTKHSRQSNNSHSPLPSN
Outline: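 TR-FRET read-out: after EDTA stop (10 mM final), Tb-labelled phospho-eIF2a antibody (2 nM) for 90 min; IC50 via 4-parameter nonlinear fit. Reaction: PERK aa 536-1116, GFP-eIF2a 100-200 nM, HEPES pH 7.5 with MgCl2/EGTA/Brij-35, 45 min, room temperature, started by enzyme.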

[2] = system: GFP-eIF2α in HEK293 cells; experiment: PERK cellular assay, TR-FRET in HEK293-EGFP-eIF2a cells after tunicamycin-induced ER stress; assay type: cell-based; settings: HEK293-EGFP-eIF2a cells, tunicamycin 2 hours, read-out: Cellular eIF2α IC50
Outline: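 Compounds were added 30 min before a 2 h tunicamycin ([…]) challenge of lentivirally made GFP-eIF2α HEK293 cells, 5000/well; lysate TR-FRET ratio was the read-out.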

Compound	IC50 [1]	IC50 ([2]; Homo sapiens, HEK293, 2 h)	IC50 [2]
Cc1cc(NC(=O)N(C)c2ccccc2)ccc1-c1cn(C)c2ncnc(N)c12 [Example 171, 3-(4-(4-amino-7-methyl-7H-pyrrolo[2,3-d]pyrimidin-5-yl)-3-methylphenyl)-1-methyl-1-phenylurea]	101 to 250 nM	1000 to 2000 nM	–
CCc1nc(N)c2c(-c3ccc(NC(=O)C(O)c4cccc(F)c4)cc3C)cn(C)c2n1 (centres unmarked) [Example 67, N-(4-(4-amino-2-ethyl-7-methyl-7H-pyrrolo[2,3-d]pyrimidin-5-yl)-3-methylphenyl)-2-(3-fluorophenyl)-2-hydroxyacetamide]	101 to 250 nM	1000 to 2000 nM	–
Cc1cc(NC(=O)Cc2cccc3cnccc23)ccc1-c1cn(C)c2ncnc(N)c12 [Example 156, N-(4-(4-amino-7-methyl-7H-pyrrolo[2,3-d]pyrimidin-5-yl)-3-methylphenyl)-2-(isoquinolin-5-yl)acetamide]	51 to 100 nM	251 to 500 nM	–
Cc1cc(NC(=O)Cc2cncc3ccccc23)ccc1-c1cn(C)c2ncnc(N)c12 [Example 155, N-(4-(4-amino-7-methyl-7H-pyrrolo[2,3-d]pyrimidin-5-yl)-3-methylphenyl)-2-(isoquinolin-4-yl)acetamide]	26 to 50 nM	101 to 250 nM	–
Cc1nc(N)c2c(-c3ccc(NC(=O)C(O)c4cccc(F)c4)cc3C(F)(F)F)cn(C)c2n1 (centres unmarked) [Example 20, N-(4-(4-amino-2,7-dimethyl-7H-pyrrolo[2,3-d]pyrimidin-5-yl)-3-(trifluoromethyl)phenyl)-2-(3-fluorophenyl)-2-hydroxyacetamide]	51 to 100 nM	–	1000 to 2000 nM
Cc1nc(N)c2c(-c3ccc(NC(=O)C(O)c4cccc(F)c4)cc3C)cn(C)c2n1 (single isomer, unassigned) [Example 2, N-(4-(4-amino-2,7-dimethyl-7H-pyrrolo[2,3-d]pyrimidin-5-yl)-3-methylphenyl)-2-(3-fluorophenyl)-2-hydroxyacetamide]	51 to 100 nM	–	251 to 500 nM
Cc1cccc(C(O)C(=O)Nc2ccc(-c3cn(C)c4nc(C)nc(N)c34)c(Cl)c2)c1 (centres unmarked) [Example 96, N-(4-(4-amino-2,7-dimethyl-7H-pyrrolo[2,3-d]pyrimidin-5-yl)-3-chlorophenyl)-2-hydroxy-2-(m-tolyl)acetamide]	1 to 25 nM	–	1 to 25 nM
COc1cc(NC(=O)C(O)c2cccc(F)c2)ccc1-c1cn(C)c2nc(C)nc(N)c12 (single isomer, unassigned) [Example 106, N-(4-(4-amino-2,7-dimethyl-7H-pyrrolo[2,3-d]pyrimidin-5-yl)-3-methoxyphenyl)-2-(3-fluorophenyl)-2-hydroxyacetamide]	101 to 250 nM	–	1000 to 2000 nM
Cc1nc(N)c2c(-c3ccc(NC(=O)C(O)c4cc(F)cc(F)c4)cc3C)cn(C)c2n1 (centres unmarked) [Example 52, N-(4-(4-amino-2,7-dimethyl-7H-pyrrolo[2,3-d]pyrimidin-5-yl)-3-methylphenyl)-2-(3,5-difluorophenyl)-2-hydroxyacetamide]	1 to 25 nM	–	1 to 25 nM
Cc1cc(NC(=O)CC2CCCCC2)ccc1-c1cn(C)c2ncnc(N)c12 [Example 166, N-(4-(4-amino-7-methyl-7H-pyrrolo[2,3-d]pyrimidin-5-yl)-3-methylphenyl)-2-cyclohexyl-acetamide]	1 to 25 nM	101 to 250 nM	–
Cc1cc(NC(=O)C(O)c2cccc(F)c2)cc(F)c1-c1cn(C)c2ncnc(N)c12 (centres unmarked) [Example 124, N-(4-(4-amino-7-methyl-7H-pyrrolo[2,3-d]pyrimidin-5-yl)-3-fluoro-5-methylphenyl)-2-(3-fluorophenyl)-2-hydroxyacetamide]	1 to 25 nM	1 to 25 nM	–
Cc1nc(N)c2c(-c3ccc(NC(=O)C(O)c4cc(F)cc(C(F)(F)F)c4)cc3C)cn(C)c2n1 (single isomer, unassigned) [Example 55, N-(4-(4-amino-2,7-dimethyl-7H-pyrrolo[2,3-d]pyrimidin-5-yl)-3-methylphenyl)-2-(3-fluoro-5-(trifluoromethyl)phenyl)-2-hydroxyacetamide]	101 to 250 nM	–	251 to 500 nM
Cc1cc(F)cc(C(O)C(=O)Nc2ccc(-c3cn(C)c4nc(C)nc(N)c34)c(C)c2)c1 (centres unmarked) [Example 56, N-(4-(4-amino-2,7-dimethyl-7H-pyrrolo[2,3-d]pyrimidin-5-yl)-3-methylphenyl)-2-(3-fluoro-5-methylphenyl)-2-hydroxyacetamide]	1 to 25 nM	–	1 to 25 nM
Cc1cc(NC(=O)C(O)c2ccccc2C(F)(F)F)ccc1-c1cn(C)c2ncnc(N)c12 (centres unmarked) [Example 45, N-(4-(4-amino-7-methyl-7H-pyrrolo[2,3-d]pyrimidin-5-yl)-3-methylphenyl)-2-hydroxy-2-(2-(trifluoromethyl)phenyl)acetamide]	1 to 25 nM	101 to 250 nM	–
Cc1nc(N)c2c(-c3cnc(NC(=O)C(O)c4cccc(F)c4)cc3C)cn(C)c2n1 (centres unmarked) [Example 134, N-(5-(4-amino-2,7-dimethyl-7H-pyrrolo[2,3-d]pyrimidin-5-yl)-4-methylpyridin-2-yl)-2-(3-fluorophenyl)-2-hydroxyacetamide]	1 to 25 nM	–	101 to 250 nM

Continued, in another order:

IC50 [1]	Compound	IC50 ([2]; Homo sapiens, HEK293, 2 h)	IC50 [2]
1 to 25 nM	Cc1nc(N)c2c(-c3ccc(NC(=O)C(O)c4cc(F)cc(F)c4)cc3F)cn(C)c2n1 (centres unmarked) [Example 83, N-(4-(4-amino-2,7-dimethyl-7H-pyrrolo[2,3-d]pyrimidin-5-yl)-3-fluorophenyl)-2-(3,5-difluorophenyl)-2-hydroxyacetamide]	–	1 to 25 nM
1 to 25 nM	Cc1nc(N)c2c(-c3ccc(NC(=O)C(O)c4cc(F)cc(C(F)(F)F)c4)cc3F)cn(C)c2n1 (centres unmarked) [Example 87, N-(4-(4-amino-2,7-dimethyl-7H-pyrrolo[2,3-d]pyrimidin-5-yl)-3-fluorophenyl)-2-(3-fluoro-5-(trifluoromethyl)phenyl)-2-hydroxyacetamide]	–	51 to 100 nM
1 to 25 nM	Cc1nc(N)c2c(-c3c(C)cc(NC(=O)C(O)c4cccc(F)c4)cc3F)cn(C)c2n1 (centres unmarked) [Example 125, N-(4-(4-amino-2,7-dimethyl-7H-pyrrolo[2,3-d]pyrimidin-5-yl)-3-fluoro-5-methylphenyl)-2-(3-fluorophenyl)-2-hydroxyacetamide]	51 to 100 nM	–
1 to 25 nM	Cc1cc(NC(=O)Cc2cccc3ccccc23)ccc1-c1cn(C)c2ncnc(N)c12 [Example 153, N-(4-(4-amino-7-methyl-7H-pyrrolo[2,3-d]pyrimidin-5-yl)-3-methylphenyl)-2-(naphthalen-1-yl)acetamide]	26 to 50 nM	–
1 to 25 nM	Cc1nc(N)c2c(-c3ccc(NC(=O)C(O)c4cccc(C(F)(F)F)c4)cc3F)cn(C)c2n1 (centres unmarked) [Example 78, N-(4-(4-amino-2,7-dimethyl-7H-pyrrolo[2,3-d]pyrimidin-5-yl)-3-fluorophenyl)-2-hydroxy-2-(3-(trifluoromethyl)phenyl)acetamide]	1 to 25 nM	–
1 to 25 nM	CCc1cc(NC(=O)C(O)c2cccc(F)c2)ccc1-c1cn(C)c2ncnc(N)c12 (centres unmarked) [Example 17, N-(4-(4-amino-7-methyl-7H-pyrrolo[2,3-d]pyrimidin-5-yl)-3-ethylphenyl)-2-(3-fluorophenyl)-2-hydroxyacetamide]	1 to 25 nM	–
1 to 25 nM	Cc1nc(N)c2c(-c3ccc(NC(=O)C(O)c4cccc(F)c4)cc3F)cn(C)c2n1 (centres unmarked) [Example 80, N-(4-(4-amino-2,7-dimethyl-7H-pyrrolo[2,3-d]pyrimidin-5-yl)-3-fluorophenyl)-2-(3-fluorophenyl)-2-hydroxyacetamide]	–	26 to 50 nM
